Drawing on patent publication US20130210846A1, “USE OF NOVEL PAN-CDK INHIBITORS FOR TREATING TUMORS” (BAYER INTELLECTUAL PROPERTY GMBH, priority 2010, published 2013), this text covers IC50 for 10 compounds.

The subject of one test is Caco-2. Put plainly: Proliferation assay Caco-2. The format is cell-based, human. Particulars: Caco-2, colon/rectum carcinoma; 4 days, crystal violet. As to the method:
(§1) Cultivated human tumor cells (originally obtained from ATCC, HeLa-MaTu and HeLa-MaTu-ADR, originally obtained from Epo GmbH, Berlin, Germany) were plated at a density of 1000 to 5000 cells/measuring point, depending on the growth rate of the cell line, in a 96-well multititer plate in 200 μl of growth medium (DMEM/HAMS F12, 2 mM L-glutamine, 10% fetal calf serum). After 24 hours the cells of one plate (zero-point plate) were stained with crystal violet (see below), whereas the medium of the other plates was replaced with fresh culture medium (200 μl), to which the test substances had been added at various concentrations (0 μM, and in the range 0.01-30 μM; the final concentration of the solvent dimethyl sulfoxide was 0.5%). The cells were incubated for 4 days in the presence of the test substances. Cellular proliferation was determined by staining the cells with crystal violet: the cells were fixed by adding 20 μl/measuring point of an 11% glutaraldehyde solution for 15 min at room temperature. After washing the fixed cells with water three times, the plates were dried at room temperature. The cells were stained by adding 100 μl/measuring point of a 0.1% crystal violet solution (pH adjusted to pH3 by adding acetic acid). After washing the stained cells with water three times, the plates were dried at room temperature. The dye was dissolved by adding 100 μl/measuring point of a 10% acetic acid solution. The extinction was determined photometrically at a wavelength of 595 nm. The percentage change in cell growth was calculated by standardization of the measured values to the extinction values of the zero-point plate (=0%) and the extinction of the untreated (0 μM) cells (=100%). The measured data were standardized to 0% inhibition (cell proliferation without inhibitor) and 100% inhibition (zero-point plate). The IC50 values were determined by means of a 4-parameter fit using the company's own software.
(§2) The substances were examined in the following cell lines which, in an exemplary manner, represent the stated indications: […]

The next test has as its target T1, CDK1/CycB (Homo sapiens, UniProt P06493).
T1 construct: purchased ProQinase GmbH, Freiburg, Germany; host or cells: baculovirus-infected insect cells (Sf9)
The experiment in a line: CDK1/CycB kinase assay (Assay 1). Particulars: 0.5 μM ATP, histon IIIS, 10 min 22° C.; read-out: CDK1/CycB (Assay 1) Concentration for half-maximal inhibition of the enzyme activity, IC50. Type of test: biochemical. As to the method: Recombinant CDK1 and CycB-GST fusion proteins, purified from baculovirus-infected insect cells (Sf9), were purchased from ProQinase GmbH, Freiburg, Germany. The histon HIS used as kinase substrate is commercially available from Sigma.
CDK1/CycB (200 ng/measuring point) was incubated for 10 min at 22° C. in the presence of various concentrations of test substances (0 μM, and within the range 0.01-100 μM) in assay buffer [50 mM Tris/HCl pH8.0, 10 mM MgCl2, 0.1 mM Na ortho-vanadate, 1.0 mM dithiothreitol, 0.5 μM adenosine triphosphate (ATP), 10 μg/measuring point histon IIIS, 0.2 μCi/measuring point ^33P-gamma ATP, 0.05% NP40, 1.25% dimethyl sulfoxide]. The reaction was stopped by adding EDTA solution (250 mM, pH 8.0, 15 μl/measuring point).
(§3) From each reaction mixture, 15 μl were applied to P30 filter strips (from Wallac), and unincorporated ^33P-ATP was removed by washing the filter strips three times, for 10 min each time, in 0.5% phosphoric acid. After drying the filter strips for 1 hour at 70° C., the filter strips were covered with scintillator strips (MeltiLex™ A, from Wallac) and stoved for 1 hour at 90° C. The amount of incorporated ^33P (substrate phosphorylation) was determined by scintillation measurement in a gamma-radiation measuring instrument (Wallac). The measured data were standardized to 0% inhibition (enzyme reaction without inhibitor) and 100% inhibition (all assay components except enzyme). The IC50 values were determined by means of a 4-parameter fit using the company's own software.

The next test has as its system MCF7. The experiment in a line: Proliferation assay MCF7. The format is cell-based, human. Conditions: MCF7, estrogen receptor-positive mamma carcinoma; 4 days, crystal violet. On the procedure: as §1, §2
In another test the test system is HeLa-MaTu-ADR. The experiment in a line: Proliferation assay HeLa-MaTu-ADR. Type of test: cell-based, human. Particulars: cervix carcinoma, 4 days, crystal violet. As to the method: as §1, §2
Test [1] has as its target T2, VEGF receptor tyrosine kinase-2 (VEGF-R2) (Homo sapiens, UniProt P35968).
T2 construct: GST; made in house; host or cells: baculovirus-infected insect cells (Sf9)
Put plainly: VEGF receptor-2 kinase assay (Assay 3). Conditions: 8 μM ATP, poly-(Glu4Tyr), 10 min 22° C.; read-out: VEGF-R2 (Assay 3) Concentration for half-maximal inhibition of the enzyme activity, IC50. Type of test: biochemical. On the procedure: Recombinant VEGF receptor tyrosine kinase-2 was purified as GST fusion protein from baculovirus-infected insect cells (Sf9). Poly-(Glu4Tyr), used as kinase substrate, was purchased from Sigma.
VEGF receptor tyrosine kinase (90 ng/measuring point) was incubated for 10 min at 22° C. in the presence of various concentrations of test substances (0 μM, and within the range 0.001-30 μM) in 30 μl assay buffer [40 mM Tris/HCl pH5.5, 10 mM MgCl2, 1 mM MnCl2, 3 μM Na ortho-vanadate, 1.0 mM dithiothreitol, 8 μM adenosine triphosphate (ATP), 0.96 μg/measuring point poly-(Glu4Tyr), 0.2 μCi/measuring point ^33P-gamma ATP, 1.4% dimethyl sulfoxide]. The reaction was stopped by adding EDTA solution (250 mM, pH 8.0, 15 μl/measuring point).
as §3, with “μl was” for “μl were”

The next test addresses T3, CDK2/CycE (Homo sapiens, UniProt P24941).
T3 construct: purchased ProQinase GmbH, Freiburg, Germany; host or cells: baculovirus-infected insect cells (Sf9)
Put plainly: CDK2/CycE kinase assay (Assay 2). Conditions: 0.5 μM ATP, histon IIIS, 10 min 22° C.; read-out: CDK2/CycE (Assay 2) Concentration for half-maximal inhibition of the enzyme activity, IC50. Type of test: biochemical. As to the method:
Recombinant CDK2 and CycE-GST fusion proteins, purified from baculovirus-infected insect cells (Sf9), were purchased from ProQinase GmbH, Freiburg, Germany. Histon HIS, used as kinase substrate, was purchased from Sigma.
The reaction was stopped by adding EDTA solution (250 mM, pH 8.0, 15 μl/measuring point).
as §3, with “μl was” for “μl were”, “(Wallac). […]” for “(Wallac). The measured data were standardized to 0% inhibition (enzyme reaction without inhibitor) and 100% inhibition (all assay components except enzyme).”

The next test relates to DU145. Put plainly: Proliferation assay DU145. Type of test: cell-based, human. Particulars: DU145, prostate carcinoma; 4 days, crystal violet. On the procedure:
as §1, §2

The test system of another test is NCI-H460. Put plainly: Proliferation assay NCI-H460. The format is cell-based, human. Conditions: NCI-H460, non-small-cell bronchial carcinoma; 4 days, crystal violet. As to the method: as §1, §2
The subject of a further test is HeLa-MaTu. Put plainly: Proliferation assay HeLa-MaTu. The format is cell-based, human. Conditions: cervix carcinoma, 4 days, crystal violet. On the procedure: as §1, §2

Molecules are shown by their SMILES.

T2 sequence (P35968 20-1356, species assumed): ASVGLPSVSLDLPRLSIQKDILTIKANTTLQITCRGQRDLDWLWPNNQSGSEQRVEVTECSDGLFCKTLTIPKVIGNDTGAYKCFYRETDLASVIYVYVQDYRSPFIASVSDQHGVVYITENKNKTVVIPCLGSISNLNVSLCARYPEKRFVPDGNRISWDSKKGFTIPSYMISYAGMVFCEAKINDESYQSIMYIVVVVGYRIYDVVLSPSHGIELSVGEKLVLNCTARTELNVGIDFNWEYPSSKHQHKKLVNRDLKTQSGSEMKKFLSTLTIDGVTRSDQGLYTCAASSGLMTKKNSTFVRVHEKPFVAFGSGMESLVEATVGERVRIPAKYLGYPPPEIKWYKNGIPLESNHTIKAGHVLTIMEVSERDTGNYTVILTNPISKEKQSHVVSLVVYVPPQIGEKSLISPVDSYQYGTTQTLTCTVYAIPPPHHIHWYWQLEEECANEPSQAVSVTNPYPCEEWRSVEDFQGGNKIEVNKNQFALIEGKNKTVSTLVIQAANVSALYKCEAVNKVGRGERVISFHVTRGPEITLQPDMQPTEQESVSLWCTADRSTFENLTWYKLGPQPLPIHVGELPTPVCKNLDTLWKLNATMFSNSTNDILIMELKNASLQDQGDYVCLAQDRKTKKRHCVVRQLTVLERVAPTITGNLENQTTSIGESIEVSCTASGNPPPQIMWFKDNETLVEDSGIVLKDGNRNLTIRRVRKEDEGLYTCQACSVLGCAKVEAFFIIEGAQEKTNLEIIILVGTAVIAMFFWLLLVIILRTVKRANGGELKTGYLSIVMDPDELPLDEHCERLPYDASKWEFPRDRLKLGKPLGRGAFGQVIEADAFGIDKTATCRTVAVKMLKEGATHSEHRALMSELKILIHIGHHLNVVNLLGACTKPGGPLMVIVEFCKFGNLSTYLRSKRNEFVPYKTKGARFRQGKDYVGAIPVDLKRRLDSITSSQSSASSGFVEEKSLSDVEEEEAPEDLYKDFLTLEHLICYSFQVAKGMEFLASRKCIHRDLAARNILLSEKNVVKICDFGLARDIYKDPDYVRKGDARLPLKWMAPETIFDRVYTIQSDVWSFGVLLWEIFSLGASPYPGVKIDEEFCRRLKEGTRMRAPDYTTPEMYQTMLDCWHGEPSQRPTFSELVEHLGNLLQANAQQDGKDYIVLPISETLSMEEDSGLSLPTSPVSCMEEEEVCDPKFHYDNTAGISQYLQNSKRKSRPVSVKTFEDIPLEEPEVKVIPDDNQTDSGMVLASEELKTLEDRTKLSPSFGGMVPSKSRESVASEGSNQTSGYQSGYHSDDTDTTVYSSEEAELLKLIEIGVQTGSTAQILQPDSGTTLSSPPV
T1 sequence (P06493 whole entry): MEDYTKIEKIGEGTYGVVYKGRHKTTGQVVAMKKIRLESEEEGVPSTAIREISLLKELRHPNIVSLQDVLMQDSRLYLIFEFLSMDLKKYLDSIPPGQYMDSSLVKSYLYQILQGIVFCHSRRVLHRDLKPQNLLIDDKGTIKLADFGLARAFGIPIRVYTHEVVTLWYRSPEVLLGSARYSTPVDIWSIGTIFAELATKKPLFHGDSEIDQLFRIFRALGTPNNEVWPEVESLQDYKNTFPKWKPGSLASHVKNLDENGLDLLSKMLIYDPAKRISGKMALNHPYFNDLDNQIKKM
T1 sequence (P14635 whole entry partner): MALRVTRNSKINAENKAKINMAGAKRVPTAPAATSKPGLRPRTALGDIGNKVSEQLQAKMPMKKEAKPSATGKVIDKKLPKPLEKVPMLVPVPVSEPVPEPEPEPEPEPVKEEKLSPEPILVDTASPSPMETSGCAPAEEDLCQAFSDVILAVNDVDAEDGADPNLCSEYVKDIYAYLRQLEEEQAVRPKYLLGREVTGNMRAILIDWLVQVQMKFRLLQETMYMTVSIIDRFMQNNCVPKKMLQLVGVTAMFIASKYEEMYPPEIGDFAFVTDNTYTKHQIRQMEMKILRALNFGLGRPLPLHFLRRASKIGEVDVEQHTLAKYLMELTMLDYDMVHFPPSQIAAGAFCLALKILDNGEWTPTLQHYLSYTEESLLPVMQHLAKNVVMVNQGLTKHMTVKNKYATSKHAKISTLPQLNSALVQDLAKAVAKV

As for `CCS(=N)(=O)c1ccc(Nc2ncc(C(F)(F)F)c(N[C@H](C)[C@@H](C)O)n2)cc1` (mixture of isomers) [Example 6-SI-1, (RS)—S-Ethyl-S-(4-{[4-{[(1R,2R)-2-hydroxy-1-methylpropyl]amino}-5-(trifluoromethyl)-pyrimidin-2-yl]amino}phenyl)sulfoximide], the IC50 in the test on Caco-2 is 120 nM; on CDK1/CycB, 10 nM; in the test on MCF7 it was 59 nM; in the test with HeLa-MaTu-ADR it was 35 nM; in [1], 73 nM; on CDK2/CycE it was 5 nM. For the same compound, the IC50 in the test with DU145 was 100 nM; with NCI-H460 it was 50 nM.
In the case of `C[C@@H](O)[C@@H](C)Oc1nc(Nc2ccc(S(C)(=N)=O)cc2)ncc1C(F)(F)F` (mixture of isomers) [Example 2-SI-1, (RS)—S-(4-{[4-{[(1R,2R)-2-Hydroxy-1-methylpropyl]oxy}-5-(trifluoromethyl)pyrimidin-2-yl]-amino}phenyl)-S-methylsulfoximide], the IC50 turned out to be 80 nM in the test on Caco-2; 39 nM in the test with MCF7; 32 nM in the test on HeLa-MaTu-ADR; 28 nM in the test with DU145; 68 nM with NCI-H460.
Turning to `CCS(=N)(=O)c1ccc(Nc2ncc(C(F)(F)F)c(N[C@H](C)C(C)(C)O)n2)cc1` (mixture of isomers) [Example 7-SI-1, (RS)—S-Ethyl-S-(4-{[4-{[(R)-2-hydroxy-1,2-dimethylpropyl]amino}-5-(trifluoromethyl)pyrimidin-2-yl]amino}phenyl)sulfoximide], the IC50 came out at 196 nM in the test on Caco-2; 106 nM in the test with MCF7; 112 nM in the test with HeLa-MaTu-ADR; 152 nM in the test with DU145; 119 nM with NCI-H460; 27 nM in the test with HeLa-MaTu.
Regarding `CCS(=N)(=O)c1ccc(Nc2ncc(C(F)(F)F)c(N[C@H](C)C(C)(C)O)n2)cc1` (mixture of isomers) [Example 7-SI-2, (RS)—S-Ethyl-S-(4-{[4-{[(R)-2-hydroxy-1,2-dimethylpropyl]amino}-5-(trifluoromethyl)pyrimidin-2-yl]amino}phenyl)sulfoximide], the IC50 in the test with Caco-2 stood at 67 nM; in the test on MCF7, 39 nM; in the test with HeLa-MaTu-ADR, 36 nM; with DU145, 42 nM; in the test with NCI-H460, 51 nM; in the test on HeLa-MaTu it was 10 nM.
The compound `C[C@@H](O)[C@@H](C)Nc1nc(Nc2ccc(S(C)(=N)=O)cc2)ncc1C(F)(F)F` (mixture of isomers) [Example 8-SI-1, (RS)—S-(4-{[4-{[(1R,2R)-2-Hydroxy-1-methylpropyl]amino}-5-(trifluoromethyl)pyrimidin-2-yl]-amino}phenyl)-S-methylsulfoximide] showed an IC50 with DU145 of 64 nM.
In the case of `C[C@@H](O)[C@@H](C)Nc1nc(Nc2ccc(S(C)(=N)=O)cc2)ncc1C(F)(F)F` (mixture of isomers) [Example 8-SI-2, (RS)—S-(4-{[4-{[(1R,2R)-2-Hydroxy-1-methylpropyl]amino}-5-(trifluoromethyl)pyrimidin-2-yl]-amino}phenyl)-S-methylsulfoximide], the IC50 in the test on Caco-2 came to 41 nM; in the test on MCF7 it was 23 nM; in the test on HeLa-MaTu-ADR, 24 nM; in the test with DU145, 30 nM; in the test on NCI-H460, 28 nM; with HeLa-MaTu, 10 nM.
On to `C[C@@H](Nc1nc(Nc2ccc(S(C)(=N)=O)cc2)ncc1C(F)(F)F)C(C)(C)O` (mixture of isomers) [Example 9-SI-1, (RS)—S-(4-{[4-{[(1R)-2-Hydroxy-1,2-dimethylpropyl]amino}-5-(trifluoromethyl)pyrimidin-2-yl]amino}phenyl)-S-methylsulfoximide], for which the IC50 in the test on Caco-2 was 61 nM; in the test with MCF7, 89 nM; with HeLa-MaTu-ADR, 19 nM; in the test with DU145, 34 nM; in the test with NCI-H460 it was 34 nM.
In the case of `C[C@@H](Nc1nc(Nc2ccc(S(C)(=N)=O)cc2)ncc1C(F)(F)F)C(C)(C)O` (mixture of isomers) [Example 9-SI-2, (RS)—S-(4-{[4-{[(1R)-2-Hydroxy-1,2-dimethylpropyl]amino}-5-(trifluoromethyl)pyrimidin-2-yl]amino}phenyl)-S-methylsulfoximide], the IC50 in the test with Caco-2 came to 200 nM; with MCF7, 271 nM; in the test with HeLa-MaTu-ADR, 114 nM; with DU145 it was 185 nM; with NCI-H460 it was 112 nM; with HeLa-MaTu, 21 nM.
As to `CCS(=N)(=O)c1ccc(Nc2ncc(C(F)(F)F)c(N[C@H](C)C(C)(C)O)n2)cc1` (single isomer, unassigned) [Example 7-SI-1], the IC50 at CDK1/CycB stood at 24 nM; in test [1] it was 143 nM; at CDK2/CycE, 4 nM.
The corresponding values for `C[C@@H](Nc1nc(Nc2ccc(S(C)(=N)=O)cc2)ncc1C(F)(F)F)C(C)(C)O` (single isomer, unassigned) [Example 9-SI-2] are 17 nM, 154 nM and 3 nM.
